Earlier results in patent US20090247593A1, “N-THIAZOL-2-YL-BENZAMIDE DERIVATIVES” (H. Lundbeck A/S, priority 2003, published 2009).
Where two headings read alike, the source gives them in different places.

Experiments:
mice [1] = settings: for total immobility time: mouse tail suspension test
[2] = system: MPTP treated mice and 6-OHDA-lesioned rats
[3] = system: unilateral 6-OHDA lesioned mice and rats; settings: elicited by a subthreshold dose of levodopa
[4] = system: non-human primates treated with MPTP
mice [5] = settings: mouse forced swimming test
[6] = mice previously screened for having high immobility time

SMILES | immobility (mice [1]; [6]) | contralateral rotations [3] | total immobility time (mice [1]) | immobility time (mice [5]) | further results
Nc1nc(NCCc2ccc(O)cc2)nc2nc(-c3ccco3)nn12 [ZM241385, 4-(2-[7-amino-2-(2-furyl) [1,2,4]triazolo[2,3-a][1,3,5]triazin-5-ylamino]-ethyl)phenol] | reduce immobility |  |  |  | 
CCn1c(=O)c2c(nc(/C=C/c3ccc(OC)c(OC)c3)n2C)n(CC)c1=O [KW-6002, 8-[(1E)-2-(3,4-dimethoxyphenyl)ethenyl]-1,3-diethyl-3,7-dihydro-7-methyl-1H-purine-2,6-dione] |  | enhance contralateral rotations | reduced the total immobility time |  | functional loss of dopaminergic nerve terminals in the striatum [2]: prevented functional loss of dopaminergic nerve terminals in the striatum; gliosis normally induced around degenerating neurons [2]: prevented gliosis; motor impairment ([4]; induced in non-human primates by MPTP): significantly improves motor impairment; dyskinesias ([4]; non-human primates, MPTP): without causing dyskinesias
Nc1nc(Cl)nc2c1ncn2[C@@H]1O[C@H](CO)[C@@H](O)[C@H]1O [2-chloroadenosine] |  |  |  | increased immobility time | 
Nc1nc2c(cnn2CCc2ccccc2)c2nc(-c3ccco3)nn12 [SCH58261, 2-(2-furanyl)-7-(2-phenylethyl)-7H-pyrazolo[4,3-e][1,2,4]triazolo[1,5-c]pyrimidin-5-amine] | reduce immobility | enhance contralateral rotations | reduced the total immobility time |  | immobility (mice [1]; mice selectively bred for their helplessness): reduced immobility
Nc1ncnc2c1ncn2[C@@H]1O[C@H](CO)[C@@H](O)[C@H]1O [adenosine] |  |  |  | increased immobility time | 
